Data taken from article PMC5347165, “Killing of Staphylococcus aureus and Salmonella enteritidis and neutralization of lipopolysaccharide by 17-residue bovine lactoferricins: improved activity of Trp/Ala-containing molecules” (Scientific Reports, 2017).
Several values for one entry are separate records, joined by “and”; a condition that tells them apart may be missing. Identical values can stand only once.

Assays:
[1] = test system: E. coli CVCC1515; assay type: cell-based, Escherichia coli; details: microtiter broth dilution, 10^5 CFU/ml, 16‒18 h at 37 °C; representative of three independent experiments
Protocol: (§1) The MIC values of LfcinB17-33 derivatives against bacteria were determined by the microtiter broth dilution method. Briefly, 10 μl of serially diluted aliquots of peptides were added to each well of 96-well microtiter plates, followed by the addition of 90 μl exponential phase bacteria (10^5 CFU/ml) and incubated for 16‒18 h at 37 °C.

[2] = test system: E. coli CICC21530 (serotype O157:H7); assay type: cell-based, Escherichia coli; details: microtiter broth dilution, 10^5 CFU/ml, 16‒18 h at 37 °C; representative of three independent experiments
Protocol: as §1

[3] = Calcein leakage from model membranes; details: at 5 min, POPC/POPG (1:3) LUVs, 0.1% Triton X-100 = total
Protocol: Large unilamellar vesicles (LUVs) composed of POPC/POPG (1:3) were used as a model anionic membrane. […] were dissolved in chloroform, dried under nitrogen gas and vacuum-dried for 2 h. The lipid film was rehydrated in 20 mM HEPES (150 mM NaCl, 1 mM EDTA, pH 7.4). To make calcein-encapsulated unilamellar liposomes, the lipid film was suspended in 5 mM sodium HEPES (containing 100 mM calcein, pH 7.5). The liposome suspensions were freeze-thawed in liquid nitrogen five times and extruded ten times through two stacked polycarbonate filters (100 nm pore size) in an Avanti Mini-Extruder. Untrapped calcein was removed using a Sephadex G-50 column (Amersham Pharmacia Biotech, Little Chalfont, UK). Peptides were then added to the LUVs. After a 10-min incubation at room temperature, the release of calcein form vesicles was monitored for 10 min on a Tecan Infinite M200 PRO plate reader (TECAN, Austria) with an excitation wavelength of 485 nm and an emission wavelength of 535 nm. The total calcein fluorescence (FT) was determined by the addition of 0.1% Triton X-100. Dye leakage was calculated according to the following equation: leakage rate (%) = ((F − F0)/(FT − F0)), where F0 indicates the fluorescence of each sample at T = 0.

[4] = test system: S. enteritidis CVCC337; experiment: Outer membrane permeabilization, NPN uptake; assay type: cell-based, Salmonella enteritidis; details: 1×, 2× or 4 × MIC; HEPES buffer pH 7.2
Protocol: The effects of Lfcin4 and Lfcin5 on the outer membrane of S. aureus ATCC25923 and S. enteritidis CVCC3377 were determined by measuring the uptake of NPN[44][45]. Mid-log phase cells were washed with sterile normal saline three times and suspended in 5 mM HEPES buffer (pH 7.2, containing 5 mM glucose) to an OD at 600 nm of 0.5. […] The relative fluorescence intensity was measured using an Infinite M200 PRO plate reader. The excitation and emission wavelengths were set at 328 and 438 nm, respectively. Treatment with PBS severed as a negative control, and treatment with ampicillin or colistin was used as a positive control.

[5] = test system: LPS from E. coli O111:B4; experiment: LPS-induced endotoxemia model, survival; assay type: in vivo, mouse (C57BL/6); details: followed 7 d, groups of eight mice
Protocol: Male C57BL/6 mice (8 weeks old, 22 ± 2 g) were intraperitoneally injected with 30 mg/kg of LPS (0.2 ml) from E. coli O111:B4 cells as previously described. Mice were intraperitoneally injected with Lfcin4 or Lfcin5 (10, 15 or 20 mg/kg of body weight in 0.2 ml) or colistin (15 mg/kg of body weight in 0.2 ml) at 0.5, 8 and 24 h after inoculation with LPS, respectively. Mice injected with LPS or saline only served as positive or mock-treated controls, respectively. Survival was recorded every 12 h and followed for up to 7 d.

[6] = test system: S. enteritidis CVCC3377; experiment: Cell surface hydrophobicity, hexadecane partitioning; assay type: cell-based, Salmonella enteritidis; details: peptide 1×, 2× or 4× MIC, 10 min 37 °C, increased from 9.43% (untreated) to this value, mean, n = 3
Protocol: The effects of AMPs on the cell surface hydrophobicity of S. aureus ATCC25923 and S. enteritidis CVCC3377 were measured using the hexadecane partitioning method. Cells were grown to stationary phase in Mueller-Hinton broth at 37 °C, harvested by centrifugation at 5000 rpm for 4 min, washed twice with sterile normal saline, and suspended in 0.1 M KNO3 (pH 6.2) to an OD600 nm of 0.4. […] Sterile normal saline was used as a negative control, and the optical density at 600 nm was measured as OD0. Subsequently, a 1.2-ml cell suspension was mixed with 0.2 ml of hexadecane by vortexing for 1 min, and then, the mixture was incubated for 15 min. The OD600 nm value of the aqueous phase was determined as OD1. The hydrophobicity percentages were calculated by the following equation: hydrophobicity (%) = (1 − OD1/OD0) × 100%. All experiments were repeated three times.

[7] = test system: S. aureus ATCC25923; experiment: Inner membrane permeabilization, PI staining by flow cytometry; assay type: cell-based, Staphylococcus aureus; details: 1 × MIC, 37 °C, untreated 0.04%
Protocol: The permeabilization of the inner membrane was performed according to a previous report by Li et al. with slight modifications. […] Bacterial cells were then washed twice with PBS, fixed with 50 μg/ml PI and analyzed using a BD FACS Calibur Flow Cytometer (Franklin Lakes, New Jersey, USA). Data were analyzed using CellQuest Pro software (BD, USA).

[8] = test system: genomic DNA from S. aureus ATCC25923; experiment: Gel retardation (EMSA) of genomic DNA; assay type: binding, Staphylococcus aureus; details: 0.7% agarose gel, 10 min 37 °C; ratios tested 0, 0.5, 1, 2.5, 5, 10 (w/w)
Protocol: Genomic DNA was extracted from S. aureus ATCC25923, E. coli O157 and S. enteritidis CVCC3377 using a TIANamp Bacteria DNA Kit (TIANGEN Biotech Co., Ltd., Beijing). The gel retardation experiment was performed by mixing the bacterial DNA with different concentrations of Lfcin4 or Lfcin5 in 20 μl binding buffer (10 mM Tris-HCl, pH 8.0, 5% glycerol, 1 mM dithiothreitol, 1 mM EDTA, 20 mM KCl, and 50 μg/ml bovine serum albumin)[41]. The ratios of peptide to DNA were 0, 0.5, 1, 2.5, 5.0, and 10.0 (w/w). The mixtures were incubated for 10 min at 37 °C and then subjected to electrophoresis on a 0.7% agarose gel.

In the case of “FKAWRWAWRMKKLAAPS [Lfcin4, 17-residue LfcinB17-31 derivative, Trp/Ala-containing]”, the MIC [1] is reported as 15 μM and 32 μg/ml, the MIC [2] is reported as 15 μM and 32 μg/ml and the “dye (calcein) leakage from vesicles” value ([3]; 1× MIC) is reported as 45.5%. The “dye (calcein) leakage from vesicles” value ([3]; 2× MIC) was 90.6%, the “dye (calcein) leakage from vesicles” value ([3]; 4× MIC) was 98.4% and the “time to permeabilization of the outer membrane (NPN fluorescence)” value [4] was no more than 1 min. It also gave a survival rate ([5]; 10 mg/kg i.p. at 0.5, 8 and 24 h after LPS 30 mg/kg i.p.) of 75%, a survival rate ([5]; 15 mg/kg i.p. at 0.5, 8 and 24 h after LPS 30 mg/kg i.p.) of 100% and a survival rate ([5]; 20 mg/kg i.p. at 0.5, 8 and 24 h after LPS 30 mg/kg i.p.) of 100%. It also gave a cell surface hydrophobicity [6] of 16.45%, a PI-positive cells ([7]; 30 min) of 44.20% and a PI-positive cells ([7]; 120 min) of 50.10%. The “peptide:DNA mass ratio at which migration of genomic DNA is impaired” value [8] was “over 1.0 mass ratio (peptide:DNA)”.
